Test: xn = mol fraction of the nth substance listed
Conditions: 101 kPa, Liquid; for mass density: Pycnometric method

OCC(O)CO [glycerol] + OCCO
Conditions | mass density [kg/m3] | viscosity [mPa·s]
298.15 K, x1 = 0.1001 | 1129.2 | 25.1
298.15 K, x1 = 0.2002 | 1147.2 | 37.4
298.15 K, x1 = 0.3001 | 1164 | 55
298.15 K, x1 = 0.4002 | 1180.2 | 82.8
298.15 K, x1 = 0.4991 | 1195 | 121.4
298.15 K, x1 = 0.6011 | 1209.4 | 184.2
298.15 K, x1 = 0.7015 | 1222.6 | 272.9
298.15 K, x1 = 0.7981 | 1234.5 | 405.9
298.15 K, x1 = 0.8961 | 1246.1 | 611.8
298.15 K, x1 = 1 | 1257.8 | 943.8
303.15 K, x1 = 0.1001 | 1126.3 | 20.7
303.15 K, x1 = 0.2002 | 1144.4 | 30.3
303.15 K, x1 = 0.3001 | 1161.2 | 43.1
303.15 K, x1 = 0.4002 | 1177.3 | 64.2
303.15 K, x1 = 0.4991 | 1192.2 | 91.4
303.15 K, x1 = 0.6011 | 1206.7 | 134
303.15 K, x1 = 0.7015 | 1219.7 | 195
303.15 K, x1 = 0.7981 | 1231.5 | 285.9
303.15 K, x1 = 0.8961 | 1243.2 | 422.7
303.15 K, x1 = 1 | 1254.7 | 628.9
308.15 K, x1 = 0.1001 | 1122.9 | 17
308.15 K, x1 = 0.2002 | 1141.2 | 24.1
308.15 K, x1 = 0.3001 | 1158.2 | 33.9
308.15 K, x1 = 0.4002 | 1174.5 | 48.5
308.15 K, x1 = 0.4991 | 1189.5 | 69.4
308.15 K, x1 = 0.6011 | 1204 | 100.2
308.15 K, x1 = 0.7015 | 1217 | 142.4
308.15 K, x1 = 0.7981 | 1229.1 | 206.2
308.15 K, x1 = 0.8961 | 1240.7 | 299.9
308.15 K, x1 = 1 | 1252.2 | 431.9
313.15 K, x1 = 0.1001 | 1119.9 | 14
313.15 K, x1 = 0.2002 | 1138.2 | 19.6
313.15 K, x1 = 0.3001 | 1155.2 | 27
313.15 K, x1 = 0.4002 | 1171.6 | 38.2
313.15 K, x1 = 0.4991 | 1186.7 | 52.6
313.15 K, x1 = 0.6011 | 1201.3 | 75.2
313.15 K, x1 = 0.7015 | 1214.3 | 107
313.15 K, x1 = 0.7981 | 1226.5 | 145.2
313.15 K, x1 = 0.8961 | 1238 | 204.6
313.15 K, x1 = 1 | 1249.4 | 295.9
318.15 K, x1 = 0.1001 | 1116.3 | 11.7
318.15 K, x1 = 0.2002 | 1134.7 | 16.1
318.15 K, x1 = 0.3001 | 1151.8 | 21.7
318.15 K, x1 = 0.4002 | 1168.2 | 30.6
318.15 K, x1 = 0.4991 | 1183.3 | 41.1
318.15 K, x1 = 0.6011 | 1197.8 | 57.3
318.15 K, x1 = 0.7015 | 1210.9 | 81
318.15 K, x1 = 0.7981 | 1223.1 | 108.2
318.15 K, x1 = 0.8961 | 1234.7 | 148.4
318.15 K, x1 = 1 | 1245.8 | 185.8
323.15 K, x1 = 0.1001 | 1113.4 | 9.65
323.15 K, x1 = 0.2002 | 1131.8 | 13.1
323.15 K, x1 = 0.3001 | 1148.7 | 17.9
323.15 K, x1 = 0.4002 | 1165.2 | 24.4
323.15 K, x1 = 0.4991 | 1180.1 | 33.6
323.15 K, x1 = 0.6011 | 1194.6 | 45.3
323.15 K, x1 = 0.7015 | 1207.9 | 62
323.15 K, x1 = 0.7981 | 1219.9 | 82.4
323.15 K, x1 = 0.8961 | 1231.2 | 111
323.15 K, x1 = 1 | 1242.3 | 151.2
328.15 K, x1 = 0.1001 | 1109.4 | 8.31
328.15 K, x1 = 0.2002 | 1128 | 11
328.15 K, x1 = 0.3001 | 1145.1 | 14.6
328.15 K, x1 = 0.4002 | 1161.7 | 20.1
328.15 K, x1 = 0.4991 | 1176.7 | 26.5
328.15 K, x1 = 0.6011 | 1191.4 | 36
328.15 K, x1 = 0.7015 | 1204.7 | 48.1
328.15 K, x1 = 0.7981 | 1216.9 | 64.4
328.15 K, x1 = 0.8961 | 1228.3 | 84.6
328.15 K, x1 = 1 | 1239.3 | 108.4
333.15 K, x1 = 0.1001 | 1106 | 7.06
333.15 K, x1 = 0.2002 | 1124.6 | 9.17
333.15 K, x1 = 0.3001 | 1141.8 | 12.4
333.15 K, x1 = 0.4002 | 1158.4 | 16.4
333.15 K, x1 = 0.4991 | 1173.5 | 21.5
333.15 K, x1 = 0.6011 | 1188.2 | 28.4
333.15 K, x1 = 0.7015 | 1201.5 | 37.6
333.15 K, x1 = 0.7981 | 1213.8 | 49.4
333.15 K, x1 = 0.8961 | 1225.3 | 66.2
333.15 K, x1 = 1 | 1236.1 | 84.8
338.15 K, x1 = 0.1001 | 1102.8 | 6.1
338.15 K, x1 = 0.2002 | 1121.4 | 7.81
338.15 K, x1 = 0.3001 | 1138.6 | 10.5
338.15 K, x1 = 0.4002 | 1155.1 | 13.8
338.15 K, x1 = 0.4991 | 1170.2 | 18.1
338.15 K, x1 = 0.6011 | 1185 | 23.5
338.15 K, x1 = 0.7015 | 1198.3 | 30.7
338.15 K, x1 = 0.7981 | 1210.6 | 39.5
338.15 K, x1 = 0.8961 | 1222.2 | 50.9
338.15 K, x1 = 1 | 1232.8 | 62.2
